Laboratory results taken from patent publication US10899738B2 (THE REGENTS OF THE UNIVERSITY OF MICHIGAN, priority 2016, dated 2021).
pIC50: −log10 of the molar value.

target: menin protein (Homo sapiens (Human), UniProt O00255); test: biochemical; format: binding; settings: FP competitive binding; menin protein 4 nM, FAM-MM2 probe 2 nM; read-out: Menin Binding Affinity IC50
In short: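 Competitive fluorescence polarization assay using FAM-labelled MLL1 peptide probe FAM-MM2 (2 nM final) preincubated with menin (4 nM final) in PBS with 0.02% bovine γ-globulin, 4% DMSO and 0.01% Triton X-100. Compounds were added and incubated 30 min at room temperature. IC50 came from nonlinear regression of competition curves, with Ki also derived.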

Sequence of menin protein (O00255 whole entry): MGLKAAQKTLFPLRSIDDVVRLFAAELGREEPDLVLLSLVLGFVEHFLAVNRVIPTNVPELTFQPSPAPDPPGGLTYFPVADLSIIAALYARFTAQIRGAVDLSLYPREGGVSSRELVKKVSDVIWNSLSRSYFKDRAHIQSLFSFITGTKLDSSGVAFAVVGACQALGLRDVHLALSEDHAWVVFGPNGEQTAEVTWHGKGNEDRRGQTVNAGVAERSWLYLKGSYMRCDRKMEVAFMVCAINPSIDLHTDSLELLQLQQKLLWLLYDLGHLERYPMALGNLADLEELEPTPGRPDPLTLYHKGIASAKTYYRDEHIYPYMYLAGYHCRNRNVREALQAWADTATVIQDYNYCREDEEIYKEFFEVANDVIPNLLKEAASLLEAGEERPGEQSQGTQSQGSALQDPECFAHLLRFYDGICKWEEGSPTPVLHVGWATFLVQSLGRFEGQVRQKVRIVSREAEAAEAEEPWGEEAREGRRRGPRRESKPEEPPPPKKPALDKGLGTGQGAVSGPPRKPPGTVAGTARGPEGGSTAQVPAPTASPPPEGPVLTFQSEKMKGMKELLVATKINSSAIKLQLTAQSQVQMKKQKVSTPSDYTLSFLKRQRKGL

Compound | pIC50
CC(C)C(=O)N1CCCCC1C1(C2CCN(CCCOc3ccc(C#N)cc3)CC2)CN(C)Cc2ccccc21 (stereo not shown) [compound 300, 4-(3-(4-(4-(1-isobutyrylpiperidin-2-yl)-2-methyl-1,2,3,4-tetrahydroisoquinolin-4-yl)piperidin-1-yl)propoxy)benzonitrile] | 4.25
CNC(=O)N[C@@H]1CCC[C@H]1C(C#N)(c1ccccc1)C1CCN(CC2CN(c3ccc(S(=O)(=O)c4ccncc4)cc3)C2)CC1 (mixture of isomers) [compound 270, rac-1-((1R,2S)-2-(cyano(phenyl)(1-((1-(4-(pyridin-4-ylsulfonyl)phenyl)azetidin-3-yl)methyl)piperidin-4-yl)methyl)cyclopentyl)-3-methylurea] | 6.06
CN1CCC(C2(C3C=CCCN3)CN(C)Cc3ccccc32)CC1 (stereo not shown) [compound 167, 2-methyl-4-(1-methylpiperidin-4-yl)-4-(1,2,5,6-tetrahydropyridin-2-yl)-1,2,3,4-tetrahydroisoquinoline] | 3.76
CO[C@@H]1CCC[C@H]1C(C#N)(c1ccccc1)C1CCN(CC2CN(c3ccc(S(C)(=O)=O)cc3)C2)CC1 (mixture of isomers) [compound 180, rac-2-((1S,2R)-2-methoxycyclopentyl)-2-(1-((1-(4-(methylsulfonyl)phenyl)azetidin-3-yl)methyl)piperidin-4-yl)-2-phenylacetonitrile] | 5.01
CN1Cc2ccccc2C(C2CCCC2)(C2CCN(CCCOc3ccc(S(C)(=O)=O)cc3)CC2)C1 (stereo not shown) [compound 68, 4-cyclopentyl-2-methyl-4-(1-(3-(4-(methylsulfonyl)phenoxy)propyl)piperidin-4-yl)-1,2,3,4-tetrahydroisoquinoline] | 6.74
CCC1CCCC1C(C#N)(c1ccccc1)C1CCN(CC2CN(c3ccc(S(=O)(=O)c4ccncc4)cc3)C2)CC1 (stereo not shown) [compound 338, 2-(2-ethylcyclopentyl)-2-phenyl-2-(1-((1-(4-(pyridin-4-ylsulfonyl)phenyl)azetidin-3-yl)methyl)piperidin-4-yl)acetonitrile] | 4.99
CS(=O)(=O)C[C@@H]1CCC[C@H]1C(C#N)(c1ccccc1)C1CCN(CC2CN(c3ccc(S(=O)(=O)c4ccncc4)cc3)C2)CC1 (mixture of isomers) [compound 256, rac-2-((1R,2R)-2-((methylsulfonyl)methyl)cyclopentyl)-2-phenyl-2-(1-((1-(4-(pyridin-4-ylsulfonyl)phenyl)azetidin-3-yl)methyl)piperidin-4-yl)acetonitrile] | 5.48
N#Cc1ccc(N2CC(C(=O)N3CCC(C4(C5CCCC5)NCCc5ccccc54)CC3)C2)cc1 (stereo not shown) [compound 128, 4-(3-(4-(1-cyclopentyl-1,2,3,4-tetrahydroisoquinolin-1-yl)piperidine-1-carbonyl)azetidin-1-yl)benzonitrile] | 5.39
CC(=O)O[C@@H]1CCC[C@H]1C1(C2CCN(CC3CN(c4ccc(S(=O)(=O)C5CC5)cc4)C3)CC2)CN(C)Cc2ccc(F)cc21 (mixture of isomers) [compound 317, rac-(1R,2S)-2-(4-(1-((1-(4-(cyclopropylsulfonyl)phenyl)azetidin-3-yl)methyl)piperidin-4-yl)-6-fluoro-2-methyl-1,2,3,4-tetrahydroisoquinolin-4-yl)cyclopentyl acetate] | 6.79
CN(C)C(=O)O[C@H]1CCC[C@@H]1C(C#N)(c1ccccc1)C1CCN(CC2CN(c3ccc(S(=O)(=O)c4ccncc4)cc3)C2)CC1 (mixture of isomers) [compound 220, rac-(1S,2R)-2-(cyano(phenyl)(1-((1-(4-(pyridin-4-ylsulfonyl)phenyl)azetidin-3-yl)methyl)piperidin-4-yl)methyl)cyclopentyl dimethylcarbamate] | 6.58
CC(=O)O[C@H]1CCC[C@@H]1C(C#N)(c1cccc(F)c1)C1CCN(CC2CN(c3ccc(C#N)cc3)C2)CC1 (mixture of isomers) [compound 415, rac-(1S,2R)-2-(cyano(1-((1-(4-cyanophenyl)azetidin-3-yl)methyl)piperidin-4-yl)(3-fluorophenyl)methyl) cyclopentyl acetate] | 7.80
CNC(=O)O[C@H]1CCC[C@@H]1C(C#N)(c1ccccc1)C1CCN(CC2CN(c3ccc(S(=O)(=O)C4CC4)cc3)C2)CC1 (mixture of isomers) [compound 226, rac-(1S,2R)-2-(cyano(1-((1-(4-(cyclopropylsulfonyl)phenyl)azetidin-3-yl)methyl)piperidin-4-yl)(phenyl)methyl)cyclopentyl methylcarbamate] | 7.85
CO[C@H]1CCC[C@@H]1C(C#N)(c1ccccc1)C1CCN(CCCOc2ccc(C#N)cc2)CC1 (stereo partly drawn) [compound 174, 4-(3-(4-(cyano((1R,2S)-2-methoxycyclopentyl)(phenyl)methyl)piperidin-1-yl)propoxy)benzonitrile] | 4.61
CN1Cc2cccc(F)c2C(C2CCCC2)(C2CCN(CC3CN(c4ccc(C#N)cc4)C3)CC2)C1 (stereo not shown) [compound 33, 4-(3-((4-(4-cyclopentyl-5-fluoro-2-methyl-1,2,3,4-tetrahydroisoquinolin-4-yl)piperidin-1-yl)methyl)azetidin-1-yl)benzonitrile] | 7.72
O=S(=O)(c1ccc(N2CC(CN3CCC(C4(C5CCCC5)COCc5ccccc54)CC3)C2)cc1)C1CC1 (stereo not shown) [compound 38, 4-(4-cyclopentylisochroman-4-yl)-1-((1-(4-(cyclopropylsulfonyl)phenyl)azetidin-3-yl)methyl)piperidine] | 6.52
O=C(CN1CCC(C2(C3CCCC3)NCCc3ccccc32)CC1)N1CCc2ccccc2C1 (stereo not shown) [compound 84, 2-(4-(1-cyclopentyl-1,2,3,4-tetrahydroisoquinolin-1-yl)piperidin-1-yl)-1-(3,4-dihydroisoquinolin-2(1H)-yl)ethan-1-one] | 5.09
N#CC(c1ccccc1)(C1CCN(CC2CN(c3ccc(S(=O)(=O)c4ccncc4)cc3)C2)CC1)[C@H]1CCC[C@@H]1OC(=O)C1CCC1 (mixture of isomers) [compound 209, rac-(1S,2R)-2-(cyano(phenyl)(1-((1-(4-(pyridin-ylsulfonyl)phenyl)azetidin-3-yl)methyl)piperidin-4-yl)methyl)cyclopentyl cyclobutanecarboxylate] | 6.95
CC(=O)O[C@@H]1CCC[C@H]1C(C#N)(c1ccccc1)C1CCN(CC2CN(c3ccc(C(=O)O)cc3)C2)CC1 (mixture of isomers) [compound 389, rac-4-(3-((4-(((1S,2R)-2-acetoxycyclopentyl)(cyano) (phenyl)methyl)piperidin-1-yl)methyl)azetidin-1-yl)benzoic acid] | 5.19
N#CC(c1ccccc1)(C1CCN(CC2CN(c3ccc(S(=O)(=O)c4ccncc4)cc3)C2)CC1)[C@H]1CCC[C@@H]1OC(=O)N1CCC1 (mixture of isomers) [compound 221, rac-(1S,2R)-2-(cyano(phenyl)(1-((1-(4-(pyridin-4-ylsulfonyl)phenyl)azetidin-3-yl)methyl)piperidin-4-yl)methyl)cyclopentyl azetidine-1-carboxylate] | 7.12
N#Cc1ccc(N2CC(CN3CCC(C4(C5CCCC5)NCCc5ccccc54)CC3)C2)cn1 (stereo not shown) [compound 109, 5-(3-((4-(1-cyclopentyl-1,2,3,4-tetrahydroisoquinolin-1-yl)piperidin-1-yl)methyl)azetidin-1-yl)picolinonitrile] | 6.08
N#Cc1ccc(N2CC(CN3CCC(C4(C5CCCC5)CN(C5COC5)Cc5ccccc54)CC3)C2)cc1 (stereo not shown) [compound 44, 4-(3-((4-(4-cyclopentyl-2-(oxetan-3-yl)-1,2,3,4-tetrahydroisoquinolin-4-yl)piperidin-1-yl)methyl)azetidin-1-yl)benzonitrile] | 6.04
Cc1cc(S(=O)(=O)c2ccc(N3CC(CN4CCC(C5(C6=CCCC6)CN(C)Cc6ccccc65)CC4)C3)cc2)ccn1 (stereo not shown) [compound 205, 4-(cyclopent-1-en-1-yl)-2-methyl-4-(1-((1-(4-((2-methylpyridin-4-yl)sulfonyl)phenyl)azetidin-3-yl)methyl)piperidin-4-yl)-1,2,3,4-tetrahydroisoquinoline] | 7.06
CNC(=O)N[C@@H]1CCC[C@H]1C(C#N)(c1ccccc1)C1CCN(CCCOc2ccc(C#N)cc2)CC1 (mixture of isomers) [compound 318, rac-1-((1R,2S)-2-(cyano(1-(3-(4-cyanophenoxy)propyl)piperidin-4-yl)(phenyl)methyl)cyclopentyl)-3-methylurea] | 4.68
O=C(CN1CCC(C2(C3CCCC3)NCCc3ccccc32)CC1)N1Cc2ccccc2C1 (stereo not shown) [compound 82, 2-(4-(1-cyclopentyl-1,2,3,4-tetrahydroisoquinolin-1-yl)piperidin-1-yl)-1-(isoindolin-2-yl)ethan-1-one] | 5.21
O=S(=O)(c1ccc(N2CC(CN3CCC(C4(C5CCCC5)NCCc5ccccc54)CC3)C2)cc1)C1CCOCC1 (stereo not shown) [compound 97, 1-cyclopentyl-1-(1-((1-(4-((tetrahydro-2H-pyran-4-yl)sulfonyl)phenyl)azetidin-3-yl)methyl)piperidin-4-yl)-1,2,3,4-tetrahydroisoquinoline] | 7.31
CNC(=O)O[C@H]1CCC[C@@H]1C(Cn1ccnc1)(c1ccccc1)C1CCN(CC2CN(c3ccc(S(=O)(=O)c4ccccc4)cc3)C2)CC1 (mixture of isomers) [compound 236, rac-(1S,2R)-2-(2-(1H-imidazol-1-yl)-1-phenyl-1-(1-((1-(4-(phenylsulfonyl)phenyl)azetidin-3-yl)methyl)piperidin-4-yl)ethyl)cyclopentyl methylcarbamate] | 7.92
CC(=O)O[C@H]1CCC[C@@H]1C(C#N)(c1ccccc1)C1CCN(CC2CN(c3ccc(C(=O)O)cc3)C2)CC1 (mixture of isomers) [compound 388, rac-4-(3-((4-(((1R,2S)-2-acetoxycyclopentyl)(cyano) (phenyl)methyl)piperidin-1-yl)methyl)azetidin-1-yl)benzoic acid] | 4.82
N#Cc1ccc(OCCCN2CCC(C(C#N)(c3ccccc3)C3CCCCC3)CC2)cc1 (stereo not shown) [compound 294, 4-(3-(4-(cyano(cyclohexyl)(phenyl)methyl)piperidin-1-yl)propoxy)benzonitrile] | 4.95
